Entries after “also recorded” stand apart in the source; their conditions may differ.
Tested on: bone marrow
Assay: Histopathological analysis of bone marrow sternebrae (cellularity grade, megakaryocytes) after sublethal TBI or sham irradiation
Format: in vivo, mice
Procedure: To determine the pathophysiological effects of RRx-001 on hematopoietic protection in mice, CD2F1 male mice were treated with 10 mg/kg RRx-001 or the vehicle control 24 hours prior to a sublethal dose of TBI (7 Gy at 0.6 Gy/min using High-level Cobalt-60) or sham irradiation (day 0) according to the table below.
CD2F1 male mice (n=3/group) were divided into 4 experimental groups: 1) irradiation+vehicle, 2) irradiation+RRx-001, 3) sham-irradiation+vehicle and 4) sham-irradiation+RRx-001. Either 10 mg/kg RRx-001 or the vehicle control were IP injected 24 hours prior to either irradiation or sham-irradiation (day 0). On days 2, 7, 14, 21, and 28 post-irradiation (day 0) mice were humanely euthanized. Blood, bone marrow, and sternebrae were then collected. This experiment was performed in duplicate for a total of n=6 mice/group/time point.
Sternebrae from euthanized mice (n=6/group/time point) were collected on days 2, 7, 14, 21 and 28 post-irradiation. Sternebrae were fixed in 10% zinc-buffered formalin for at least 24 hours and up to 7 days. Fixed sternebrae were decalcified for 3 hr in 12-18% sodium EDTA (pH 7.4-7.5) and specimens dehydrated using graded ethanol concentrations and embedded in paraffin. Longitudinal 4 μm sections were stained with regular hematoxylin and eosin. Two board-certified pathologist conducted histopathological evaluation of the samples. One of the pathologist scored all the samples blindly. Bone marrow was evaluated in situ within sternebrae and graded (Grade 1: <10%; Grade 2: 11-30%; Grade 3: 31-60%; Grade 4: 61-89%; Grade 5: >90%) for total cellularity. Megakaryocytes were also quantified based on the average per 10 high power fields (HPF) at 400× magnification using a BX43 or BX53 microscope (Olympus, Minneapolis, MN). Images were captured with an Olympus DP22 camera and imported into Olympus Cellsens Standard software for review.
Blood parameters were compared between treatment groups using an analysis of variance (ANOVA). The Wilcoxon test was also used for sensitivity and to potentially address data departures from normality. A longitudinal mixed model repeated measures was also implemented to provide a more complete data analysis of the sham-irradiated treatment groups' difference in overall time profile mean based on the blood parameters. Bone marrow data (megakaryocytes and grade) statistical analysis was carried out using a parametric test consisting of a general linear model analysis of variance (ANOVA with factors consisting of treatment group and pathologist) and the Kruskal-Wallis nonparametric test. The statistical data analysis was carried out using R software (Version 3.4.3, 2016) and the graphs made using GraphPad Prism version 7.03 (GraphPad Software, La Jolla, CA).
To determine the effect of RRx-001 on bone marrow, a histopathological analysis of bone marrow sternebrae was performed and the cellularity, as reported by grade (grade 1: <10%; grade 2: 11-30%; grade 3: 31-60%; grade 4: 61-89%; grade 5: ≥90% cellularity), and megakaryocyte numbers (averaged per 10 high-powered fields; HPF) were ascertained by two pathologists, one of which scored all the samples blindly (TAS, WEC).

SMILES: O=C(CBr)N1CC([N+](=O)[O-])([N+](=O)[O-])C1 [RRx-001, 2-bromo-1-(3,3-dinitroazetidin-1-yl)ethan-1-one]
- bone marrow cellularity compared to the vehicle control (7 Gy TBI, 10 mg/kg IP 24 h before, day 7): slight increase in cellularity
- hematopoietic recovery by grade of bone marrow cellularity compared with control (7 Gy TBI, 10 mg/kg IP 24 h before, day 14, 10 mg/kg): significantly accelerated hematopoietic recovery; also recorded: significant increase in bone marrow cellularity
- number of megakaryocytes (7 Gy TBI, 10 mg/kg, between days 7-28): steady increase
- number of megakaryocytes (7 Gy TBI, 10 mg/kg, day 2): reduced
- number of megakaryocytes (7 Gy TBI, 10 mg/kg, day 7): severely depleted
- bone marrow cellularity grade (after 7 Gy TBI, 10 mg/kg IP 24 h before): 1 (grade 1: <10%)

Source: patent US12357608B2, “Methods and compositions utilizing RRx-001 combination therapy for radioprotection” (priority 2018, dated 2025)
